Details: Liquid, Twin ebulliometer

CCCCC [pentane]
Details	vapor or sublimation pressure [kPa]
309.32 K	101.73
313.85 K	118.39
320.2 K	145.3
325.22 K	169.71
330.84 K	200.67
335.22 K	227.66
339.51 K	256.78
343.32 K	284.81
346.78 K	312.35
349.92 K	338.98
353.48 K	371.25
356.79 K	403.22
360.01 K	436.34
363.24 K	471.57
366.37 K	507.7
369.92 K	551.11
377.19 K	648.59
384.19 K	754.18
392.52 K	895.85
397.8 K	995.29
402.59 K	1092.4
406.87 K	1185.1
412.57 K	1317.5
416.13 K	1405.5
417.87 K	1450
420.09 K	1508.6
423.75 K	1608.9
424.62 K	1633.2
427.09 K	1704.4
430.44 K	1804.8
430.68 K	1812
433.61 K	1903.7
437.57 K	2033.2
440.81 K	2143.7
443.59 K	2242.6
446.65 K	2355.2
449.18 K	2451.9
451.9 K	2559.3
451.99 K	2562.8
454.33 K	2658.6
455.99 K	2727.7

Source: the NIST ThermoML archive (doi:10.1016/j.jct.2005.05.015)
